Measured values: ChEMBL document CHEMBL1201862, “PubChem BioAssay data set” (2004)
Activity calls are given as the source filed them.

Legend:
[1] = MC4R antagonists, dose response, counter-screen for LGR2 antagonist project, cell-based, plate reader, cherry pick (AID 743444); assay type: functional;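 note: transfected HEK 293 cells stimulated with alpha-MSH peptide; potency of inhibitors of the alpha-MSH evoked signal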
[2] = LGR2 antagonists, dose response, cell-based, HEK293, CRE-luciferase reporter, cherry pick, set 2 (AID 743343); assay type: functional;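 note: transfected cells were stimulated with diluted bursicon conditioned medium after compound addition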
[3] = tested on: HEK293; test: inhibitors of LMP1-driven NF-kB reporter, dose response, cell-based, HEK293, luciferase, cherry-pick (AID 588343); assay type: functional; conditions: Homo sapiens
[4] = tested on: Streptococcus sp. 'group A'; test: growth inhibition of control SK(-) GAS strain, dose response, counter-screen for streptokinase expression inhibitor project, luminescence, kanamycin, BacTiterGlo, confirmation (AID 1900); assay type: functional, organism-based
[5] = THP-1 cell cytotoxicity, dose response, cytotoxicity control for non-replicating M. tuberculosis project (AID 489025); assay type: functional
[6] = microbe, parasite or virus in culture; assay type: functional; conditions: Mycobacterium tuberculosis
[7] = tested on: Streptococcus; test: Group A Streptococcus viability loss, dose response, counter-screen for streptokinase expression inhibitor project, luminescence, BacTiterGlo (AID 1915); assay type: functional, organism-based;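 note: potency for reduction of bacterial viability or growth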
[8] = cells; assay type: functional
[9] = Vero E6 cell cytotoxicity, dose response, cytotoxicity control for non-replicating M. tuberculosis project, secondary assay (AID 492998); assay type: functional, VeroE6; conditions: Vero C1008
[10] = HepG2 cell cytotoxicity, dose response, cytotoxicity control for non-replicating M. tuberculosis project (AID 489018); assay type: functional; conditions: Mycobacterium tuberculosis
[11] = target: T1, Cytochrome P450 3A4 (Homo sapiens, UniProt P08684)
T1 sequence (P08684 whole entry): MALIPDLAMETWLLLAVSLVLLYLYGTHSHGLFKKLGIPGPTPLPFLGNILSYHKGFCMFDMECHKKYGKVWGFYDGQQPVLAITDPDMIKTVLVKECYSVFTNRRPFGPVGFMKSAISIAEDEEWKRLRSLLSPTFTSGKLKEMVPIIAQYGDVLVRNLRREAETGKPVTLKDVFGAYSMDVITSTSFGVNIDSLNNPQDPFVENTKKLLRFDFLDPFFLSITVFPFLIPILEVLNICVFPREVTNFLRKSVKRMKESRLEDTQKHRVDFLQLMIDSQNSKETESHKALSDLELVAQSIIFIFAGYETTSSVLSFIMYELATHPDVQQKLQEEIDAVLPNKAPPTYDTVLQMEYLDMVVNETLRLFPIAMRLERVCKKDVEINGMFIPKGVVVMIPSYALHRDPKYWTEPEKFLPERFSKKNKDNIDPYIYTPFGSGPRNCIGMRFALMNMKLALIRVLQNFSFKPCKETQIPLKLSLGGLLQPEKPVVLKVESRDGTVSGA

[12] = target: Cytochrome P450 2D6 (Homo sapiens, UniProt P10635);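 note: CYP2D6 member of a cytochrome P450 panel assay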
Chain of Cytochrome P450 2D6 (P10635 whole entry): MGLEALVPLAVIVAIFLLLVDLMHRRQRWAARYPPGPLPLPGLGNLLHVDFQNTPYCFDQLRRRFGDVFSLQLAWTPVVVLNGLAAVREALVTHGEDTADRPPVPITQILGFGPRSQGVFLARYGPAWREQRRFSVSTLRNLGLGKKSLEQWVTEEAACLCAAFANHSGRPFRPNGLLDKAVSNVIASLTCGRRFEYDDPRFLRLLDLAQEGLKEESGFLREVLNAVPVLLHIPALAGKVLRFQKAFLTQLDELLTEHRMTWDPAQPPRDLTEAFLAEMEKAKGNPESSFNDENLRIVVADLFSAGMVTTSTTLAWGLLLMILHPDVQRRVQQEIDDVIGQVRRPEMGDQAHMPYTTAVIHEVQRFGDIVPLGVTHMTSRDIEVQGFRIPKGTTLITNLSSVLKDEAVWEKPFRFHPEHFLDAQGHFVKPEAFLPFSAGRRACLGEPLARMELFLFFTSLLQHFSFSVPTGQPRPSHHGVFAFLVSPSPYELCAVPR

[13] = target: T2, Streptokinase A (Streptococcus pyogenes serotype M1, UniProt P10520); test: S. pyogenes streptokinase expression inhibitors, potency, dose response, plasminogen activation absorbance, OD405 (AID 1914); assay type: functional, Streptococcus pyogenes M1 GAS;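 note: secreted streptokinase activity via plasminogen activation per viability signal from cell pellet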
T2 sequence (P10520 whole entry): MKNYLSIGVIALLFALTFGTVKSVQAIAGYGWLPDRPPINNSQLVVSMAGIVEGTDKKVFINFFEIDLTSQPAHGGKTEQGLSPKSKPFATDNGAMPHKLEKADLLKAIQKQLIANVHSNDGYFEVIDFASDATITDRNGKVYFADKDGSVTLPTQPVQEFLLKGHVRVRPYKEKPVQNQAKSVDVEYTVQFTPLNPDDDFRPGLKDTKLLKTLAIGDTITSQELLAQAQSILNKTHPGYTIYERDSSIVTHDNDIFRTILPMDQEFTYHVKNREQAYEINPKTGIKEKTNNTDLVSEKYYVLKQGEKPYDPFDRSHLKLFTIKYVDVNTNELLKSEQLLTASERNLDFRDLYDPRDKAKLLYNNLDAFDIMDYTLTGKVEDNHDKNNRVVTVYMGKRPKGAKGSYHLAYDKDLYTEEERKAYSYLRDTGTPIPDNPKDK

[14] = target: Voltage-dependent T-type calcium channel subunit alpha-1H (Homo sapiens, UniProt O95180); assay type: functional;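 note: channel activity triggered by adding a high calcium stimulation buffer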
Chain of Voltage-dependent T-type calcium channel subunit alpha-1H (O95180 whole entry): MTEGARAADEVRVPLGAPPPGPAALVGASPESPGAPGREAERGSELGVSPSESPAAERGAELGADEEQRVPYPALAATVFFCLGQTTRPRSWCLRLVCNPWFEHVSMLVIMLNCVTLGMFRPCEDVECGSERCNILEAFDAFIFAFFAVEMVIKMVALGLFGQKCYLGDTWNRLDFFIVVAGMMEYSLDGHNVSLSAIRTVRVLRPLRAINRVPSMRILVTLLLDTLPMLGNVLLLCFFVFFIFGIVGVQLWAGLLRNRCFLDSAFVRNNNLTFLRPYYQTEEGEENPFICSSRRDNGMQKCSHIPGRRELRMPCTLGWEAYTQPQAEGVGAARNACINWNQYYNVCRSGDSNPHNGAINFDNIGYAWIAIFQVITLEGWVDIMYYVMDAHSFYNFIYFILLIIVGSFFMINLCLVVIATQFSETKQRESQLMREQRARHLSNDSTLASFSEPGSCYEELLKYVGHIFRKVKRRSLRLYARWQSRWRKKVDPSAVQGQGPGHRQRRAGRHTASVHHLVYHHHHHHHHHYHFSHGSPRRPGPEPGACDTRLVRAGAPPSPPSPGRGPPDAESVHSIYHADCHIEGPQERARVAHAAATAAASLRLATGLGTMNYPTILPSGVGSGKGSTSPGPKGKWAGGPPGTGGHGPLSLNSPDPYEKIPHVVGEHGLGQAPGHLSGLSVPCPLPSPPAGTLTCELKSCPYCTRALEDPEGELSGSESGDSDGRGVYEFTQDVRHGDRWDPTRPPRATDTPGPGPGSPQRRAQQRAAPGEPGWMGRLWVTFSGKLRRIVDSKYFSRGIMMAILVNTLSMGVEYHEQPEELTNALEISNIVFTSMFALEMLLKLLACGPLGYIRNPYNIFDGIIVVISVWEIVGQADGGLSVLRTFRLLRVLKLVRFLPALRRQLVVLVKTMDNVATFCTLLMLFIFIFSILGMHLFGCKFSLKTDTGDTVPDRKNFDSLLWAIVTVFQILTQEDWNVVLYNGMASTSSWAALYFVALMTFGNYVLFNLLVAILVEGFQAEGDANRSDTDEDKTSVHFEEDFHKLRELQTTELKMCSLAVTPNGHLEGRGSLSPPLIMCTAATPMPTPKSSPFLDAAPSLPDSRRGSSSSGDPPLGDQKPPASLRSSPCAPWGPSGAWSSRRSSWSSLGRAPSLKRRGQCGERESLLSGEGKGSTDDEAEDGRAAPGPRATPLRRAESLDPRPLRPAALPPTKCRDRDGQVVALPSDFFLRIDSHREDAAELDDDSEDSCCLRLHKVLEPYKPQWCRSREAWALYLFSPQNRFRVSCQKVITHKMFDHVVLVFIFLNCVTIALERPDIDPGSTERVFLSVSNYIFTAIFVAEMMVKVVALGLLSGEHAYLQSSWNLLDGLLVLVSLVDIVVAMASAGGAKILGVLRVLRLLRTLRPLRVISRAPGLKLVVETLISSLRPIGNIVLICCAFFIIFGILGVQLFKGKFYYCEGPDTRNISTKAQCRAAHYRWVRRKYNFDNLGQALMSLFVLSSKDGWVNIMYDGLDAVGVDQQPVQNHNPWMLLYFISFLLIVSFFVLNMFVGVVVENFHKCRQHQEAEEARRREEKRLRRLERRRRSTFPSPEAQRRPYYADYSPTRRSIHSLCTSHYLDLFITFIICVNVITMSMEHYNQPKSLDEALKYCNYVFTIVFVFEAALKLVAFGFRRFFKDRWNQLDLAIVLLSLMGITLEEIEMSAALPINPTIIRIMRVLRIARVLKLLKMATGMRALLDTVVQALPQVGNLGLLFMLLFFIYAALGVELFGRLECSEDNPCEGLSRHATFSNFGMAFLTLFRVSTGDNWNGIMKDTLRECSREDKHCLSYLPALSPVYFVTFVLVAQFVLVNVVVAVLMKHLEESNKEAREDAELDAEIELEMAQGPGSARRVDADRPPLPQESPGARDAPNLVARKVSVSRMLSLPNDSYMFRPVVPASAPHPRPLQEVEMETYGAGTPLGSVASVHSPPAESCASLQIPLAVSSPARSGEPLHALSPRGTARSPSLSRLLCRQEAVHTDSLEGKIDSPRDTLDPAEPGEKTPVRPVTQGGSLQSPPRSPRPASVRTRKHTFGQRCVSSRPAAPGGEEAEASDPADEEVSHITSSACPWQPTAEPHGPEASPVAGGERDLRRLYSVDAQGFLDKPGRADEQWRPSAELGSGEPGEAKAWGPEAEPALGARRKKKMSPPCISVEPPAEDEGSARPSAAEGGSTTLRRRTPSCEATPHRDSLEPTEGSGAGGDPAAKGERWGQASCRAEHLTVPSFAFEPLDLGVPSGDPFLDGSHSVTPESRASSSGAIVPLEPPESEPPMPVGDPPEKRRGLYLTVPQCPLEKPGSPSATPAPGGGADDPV

[15] = cells; assay type: functional, cell-based
[16] = cells; assay type: functional, cell-based; remark: listed apart in the source
[17] = target: T1, Cytochrome P450 3A4; conditions: Potency
[18] = HepG2 cell cytotoxicity, dose response, cytotoxicity control, plate reader, cherry-pick, antagonist series (AID 743416); assay type: functional, cell-based
[19] = A549 cell cytotoxicity, dose response, cytotoxicity control, plate reader, cherry-pick, antagonist series (AID 743412); assay type: functional, cell-based
[20] = HepG2 cell cytotoxicity, dose response, cytotoxicity control for Shn3 inhibitor project, CellTiter-Glo, cherry-picked (AID 624134); assay type: functional, cell-based
[21] = Shn3 3'UTR reporter inhibitors, dose response, cell-based, Clone20 osteoblasts, firefly luciferase, cherry-picked (AID 624132); assay type: functional;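 note: firefly luciferase luminescence from reporter carrying the Shn3 3'UTR in osteoblasts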
[22] = growth suppression of PTEN-null colon cells, dose response, cell-based, HCT116 PTEN knockout (AID 1047); assay type: functional;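 note: HCT116 colon tumor cells with PTEN knocked out; cells exposed to compound for 60 hours before readout; potency for loss of cell viability measured by luminescence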
[23] = Luminescence Cell-Based Dose Retest to Confirm Inhibitors of Cancer Stem Cells. [Related pubchem assays (depositor defined):AID2717, AID2721]; assay type: functional; conditions: Homo sapiens
[24] = target: T3, Ubiquitin-conjugating enzyme E2 N (Homo sapiens, UniProt P61088); assay type: functional;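 note: Dose-response confirmation in a TR-FRET assay detecting UBC13-driven polyubiquitin chain formation, inhibition measured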
T3 sequence (P61088 whole entry): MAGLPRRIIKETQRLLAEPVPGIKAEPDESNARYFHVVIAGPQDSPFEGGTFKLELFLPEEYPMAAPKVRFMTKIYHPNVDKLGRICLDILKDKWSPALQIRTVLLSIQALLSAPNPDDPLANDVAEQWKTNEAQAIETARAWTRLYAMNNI

[25] = control 3'UTR Renilla luciferase suppression, dose response, counter-screen for Shn3 inhibitor project, cell-based, Clone20-Shn3RL, cherry-picked (AID 624133); assay type: functional
[26] = growth suppression of beta-catenin-knockout colon cells, dose response, cell-based, HCT116, human colon tumor (AID 1045); assay type: functional;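 note: HCT116 colon tumor cells with beta catenin knocked out; cells exposed to compound for 60 hours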
[27] = target: T4, Cytochrome P450 1A2 (Homo sapiens, UniProt P05177);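 note: PubChem cytochrome P450 panel assay, CYP1A2 panel member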
T4 sequence (P05177 whole entry): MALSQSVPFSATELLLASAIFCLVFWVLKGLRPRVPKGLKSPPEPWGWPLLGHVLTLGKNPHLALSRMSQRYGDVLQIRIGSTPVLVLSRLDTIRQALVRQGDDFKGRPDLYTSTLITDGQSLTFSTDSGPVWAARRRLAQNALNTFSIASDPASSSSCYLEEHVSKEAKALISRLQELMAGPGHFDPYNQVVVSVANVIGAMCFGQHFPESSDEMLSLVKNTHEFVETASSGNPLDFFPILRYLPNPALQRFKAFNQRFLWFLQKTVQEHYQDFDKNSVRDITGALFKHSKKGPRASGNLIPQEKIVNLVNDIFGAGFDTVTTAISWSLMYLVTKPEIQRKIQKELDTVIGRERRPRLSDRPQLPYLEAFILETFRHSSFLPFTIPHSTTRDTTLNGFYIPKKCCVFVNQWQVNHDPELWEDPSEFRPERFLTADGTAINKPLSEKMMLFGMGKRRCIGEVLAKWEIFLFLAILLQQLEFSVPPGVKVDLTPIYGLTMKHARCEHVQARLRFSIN

[28] = tested on: H9c2; test: cells; assay type: functional, cell-based; conditions: Rattus norvegicus, H9c2, Myocardium;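 note: confirmatory concentration-response retest of ultra-high-throughput screening hits for modulation of myocardial damage; cell death induced by hydrogen peroxide oxidative stress; compound pretreatment for 60 min then peroxide exposure for 2 h; potency is for protecting the cells against peroxide damage rather than for killing them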
[29] = cytotoxicity in OVCAR8 ovarian cancer cells, dose response, PAX8 project, cell-based, plate reader, dry powder samples (AID 743197); assay type: functional; conditions: OVCAR-8
[30] = target: Paired box protein Pax-8 (Homo sapiens, UniProt Q06710); test: inhibitors of PAX8-driven TPO luciferase reporter, dose response, RMG-I cells, cherry-pick (AID 687027); assay type: functional, cell-based;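 note: luciferase reporter driven by Pax8 target thyroperoxidase promoter measured by SteadyGlo luminescence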
Chain of Paired box protein Pax-8 (Q06710 whole entry): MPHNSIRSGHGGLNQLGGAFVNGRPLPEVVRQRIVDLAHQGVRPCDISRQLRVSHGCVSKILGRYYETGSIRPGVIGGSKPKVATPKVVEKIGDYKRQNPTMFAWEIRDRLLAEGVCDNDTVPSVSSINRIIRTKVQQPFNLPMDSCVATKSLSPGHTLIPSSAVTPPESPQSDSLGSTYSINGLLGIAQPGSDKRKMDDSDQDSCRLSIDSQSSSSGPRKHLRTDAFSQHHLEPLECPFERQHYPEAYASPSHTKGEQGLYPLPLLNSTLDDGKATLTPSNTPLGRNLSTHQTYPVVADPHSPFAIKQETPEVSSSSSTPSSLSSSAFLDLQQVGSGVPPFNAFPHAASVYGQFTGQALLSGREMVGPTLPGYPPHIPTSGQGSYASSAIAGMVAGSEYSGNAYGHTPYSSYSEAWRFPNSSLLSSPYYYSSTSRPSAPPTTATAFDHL

[31] = NIH:OVCAR-3 ovarian cancer cell cytotoxicity, dose response, PAX8 inhibitor project, plate reader, dry powder samples (AID 743044); assay type: functional, cell-based
[32] = P. falciparum Dd2 growth inhibitors, dose response, SYBR Green, cherry-picked samples (AID 1159567); assay type: functional, cell-based

SMILES: Clc1ccc(-n2ncc3c(N4CCCC4)ncnc32)cc1
- AC50 [1]: 2.7 µM (active)
- AC50 [2]: 2.04 µM (active)
- AC50 [3]: 1.32 µM (active)

SMILES: Cc1nn(-c2nc3ccccc3[nH]2)c(N)c1-c1ccc(Cl)cc1
- EC50 [4]: 2.42 µM (active)
- CC50 [5]: 25.8 µM (active)
- CC50 [6]: 31.1 µM (active)
- EC50 [7]: 8.49 µM (active)
- IC50 [8]: 1.23 µM (active)
- CC50 [9]: 17.2 µM (active)
- CC50 [10]: 16.2 µM (active)
- AC50 [11]: 25.1 µM (inconclusive)
- AC50 [12]: 12.6 µM (inconclusive)
- EC50 [13]: > 150 µM (not active)

SMILES: COc1ccc(S(=O)(=O)N(Cc2ccccc2)Cc2nc(-c3ccccc3)no2)cc1
- EC50 [14]: 6.27 µM (active)

SMILES: O=C(NCCSc1c[nH]c2ccccc12)c1ccc(Br)o1
- EC50 [15]: > 350 µM (not active)
- EC50 [16]: > 350 µM (not active)

SMILES: O=C1CN(c2ccccc2)C(=O)N1
- EC50 [15]: > 350 µM (not active)
- EC50 [16]: > 350 µM (not active)

SMILES: C/C=C/OC(=O)NC(c1cccc(C)c1)[C@@]1(C(=O)OCC)CCCC1=O (some centres not stated)
- AC50 [17]: 1.26 µM (inconclusive)

SMILES: COc1ccc(CCNC(=O)c2cc(-c3cccs3)on2)cc1OC
- EC50 [15]: > 350 µM (not active)
- EC50 [16]: > 350 µM (not active)

SMILES: Cc1ccc(-n2nnc(-c3nccn3C)n2)cc1
- AC50 [1]: 6.81 µM (active)
- AC50 [18]: > 52 µM (inactive)
- AC50 [2]: 5.3 µM (active)
- AC50 [19]: > 52 µM (inactive)

SMILES: CCCn1c(-c2ccc(F)cc2)nc2c(NCCN3CCCCC3)nc(C)nc21
- AC50 [17]: 15.8 µM (inconclusive)

SMILES: O=C(NC(=S)NCCc1ccccc1)c1ccccc1
- CC50 [10]: > 20 µM (active)

SMILES: CC(C)(C)c1ccc(C(=O)NCCCN2CCN(CCCNC(=O)c3ccc(C(C)(C)C)cc3)CC2)cc1
- AC50 [20]: 15.2 µM (active)
- AC50 [21]: 4.84 µM (active)
- EC50 [22]: 27.9 µM (active)
- AC50 [23]: 6.71 µM (active)
- IC50 [24]: > 20 µM (inactive)
- AC50 [25]: 1.62 µM (active)
- EC50 [26]: 5.18 µM (active)

SMILES: COCCCn1c(N)c(C(=O)Nc2sc3c(c2C(=O)OC)CCCC3)c2nc3ccccc3nc21
- AC50 [27]: 10 µM (inconclusive)
- IC50 [28]: > 79 µM (inactive)
- EC50 [22]: 27.8 µM (active)
- EC50 [26]: 33.9 µM (active)

SMILES: O=C(NCc1ccc(F)cc1)C1CCN(S(=O)(=O)N2CCOCC2)CC1
- EC50 [15]: > 350 µM (not active)
- EC50 [16]: > 350 µM (not active)

SMILES: O=C(NC(=S)Nc1ccccn1)c1cccc([N+](=O)[O-])c1
- EC50 [15]: > 350 µM (not active)
- EC50 [16]: > 350 µM (not active)

SMILES: O=C(CCc1ccccc1)N1CCN(c2ccc(Cl)cc2)CC1
- EC50 [14]: 4.01 µM (active)

SMILES: Nc1cc(=O)[nH]c(=O)n1Cc1ccccc1
- AC50 [17]: 25.1 µM (inconclusive)

SMILES: Cn1c(=O)c(C(=O)Nc2ccccn2)c(O)c2ccccc21
- CC50 [5]: 19 µM (active)
- IC50 [8]: 11.1 µM (active)
- CC50 [9]: 11.3 µM (active)
- CC50 [10]: > 20 µM (active)

SMILES: CCn1ncc(C2=NOC(C(=O)Nc3ccc4c(c3)OCO4)C2)c1C (configuration not stated)
- EC50 [15]: > 350 µM (not active)
- EC50 [16]: > 350 µM (not active)

SMILES: Cc1nn(Cc2ccccc2)c(Cl)c1C(=O)OCc1nnc(-c2ccccc2)o1
- EC50 [14]: 30.4 µM (active)

SMILES: CCCCCn1c(=O)c(C(=O)Nc2nc(CC(=O)OCC)cs2)c(O)c2ccccc21
- CC50 [5]: 11.1 µM (active)
- IC50 [8]: 2.79 µM (active)
- CC50 [9]: 11.8 µM (active)
- CC50 [10]: > 20 µM (active)

SMILES: O=[N+]([O-])c1ccc2[nH]cnc2c1
- AC50 [17]: 25.1 µM (inconclusive)

SMILES: COc1ccc(S(=O)(=O)Nc2ccc3c(c2)C(=O)N([C@H](C)CO)C[C@@H](C)[C@H](CN(C)S(=O)(=O)c2ccc(F)cc2)OCCCC[C@H](C)O3)cc1
- AC50 [29]: > 70 µM (inactive)
- AC50 [30]: 4.65 µM (active)

SMILES: C[C@@H]1CN([C@@H](C)CO)C(=O)c2cc(NS(=O)(=O)c3cccs3)ccc2O[C@@H](C)CCCCO[C@H]1CN(C)Cc1ccc(C(F)(F)F)cc1
- AC50 [31]: 44 µM (active)
- AC50 [30]: 25.2 µM (active)

SMILES: O=c1c(O)c(-c2ccccc2)oc2cccc(O)c12
- AC50 [17]: 12.6 µM (inconclusive)

SMILES: Nc1ccn([C@@H]2O[C@H](CO)[C@@H](OP(=O)(O)O)[C@H]2O)c(=O)n1
- AC50 [17]: 7.94 µM (inconclusive)

SMILES: CCc1nc(N2[C@H](C#N)[C@H](c3ccccc3-c3ccccc3F)[C@H]2CO)sc1C
- AC50 [32]: 7.33 µM (active)

SMILES: O=C(Cc1cccnc1)N1CC[C@H]2[C@H](CO)Nc3ccc(C#Cc4cccc(F)c4)cc3[C@H]21
- AC50 [32]: 6.12 µM (active)

SMILES: COc1ccccc1-c1ccc2c(c1)[C@H]1[C@H](CCN1C(=O)C1CCCC1)[C@@H](CO)N2
- AC50 [32]: 4.88 µM (active)

SMILES: CC(C)(C)[S@@+]([O-])N1Cc2cc(C(=O)NCCN3CCCCC3)nc(-c3cccc(-c4cccc(C#N)c4)c3)c2[C@H]1CCO
- AC50 [32]: 7.56 µM (active)

SMILES: COc1ccc(-c2c(O)c3c(OC)c4c(cc3oc2=O)OC(C)(C)CC4)cc1 [DIHYDROROBUSTIC ACID]
- AC50 [17]: 25.1 µM (inconclusive)
